These are literature values, as cited in US20200253884A1, “NANOBIOLOGIC COMPOSITIONS FOR PROMOTING TRAINED IMMUNITY” (ICAHN SCHOOL OF MEDICINE AT MOUNT SINAI, priority 2017, published 2020).

The test system of data set [1] is diffuse large B-cell lymphoma (DLBCL). To be noted: preliminary results.
Data set [2] deals with multiple cancers. The settings on record: in vivo.

With “CT-011: humanized IgG1 monoclonal antibody against PD-1”, the “subjects progression-free at the end of the follow-up period” value in data set [1] (control group 47%) is 70%. Further, the subjects alive in data set [1] (control group 62%) is reported as 82%.
For Medi 4736: anti-PD-L1 antibody, in data set [2], the clinical activity result is “durable clinical activity” and the safety profile result is on record as “acceptable safety profile”.
